Laboratory results published in PubChem BioAssay AID256 (DTP/NCI, 2004).
Several values for one entry are separate records, joined by “and”; a condition that tells them apart may be missing. Identical values can stand only once. Inconclusive results and toxic doses are left out. How the source made its calls: active means survival T/C of 150% or more; inactive means T/C below 125% in these data.

Test system: CD2F1 mice, L1210 leukemia ip, survival T/C
Test: NCI In Vivo Anticancer Drug Screen. Data for tumor model L1210 Leukemia (intraperitoneal) in CD2F1 (CDF1) mice
Settings: higher = longer survival
Outline: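 In this screen, transplantable tumors were grown in mice given either the compound or its vehicle. Results were expressed as the treated measurement relative to the control measurement.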

[1] = endpoint: mean survival time, dose: 50.0 mg/kg/injection, schedule: Q01DX009 (ip), vehicle: saline with Tween-80
[2] = endpoint: mean survival time, dose: 100.0 mg/kg/injection, schedule: Q01DX009 (ip), vehicle: saline with Tween-80
[3] = endpoint: mean survival time, dose: 200.0 mg/kg/injection, schedule: Q01DX009 (ip), vehicle: saline with Tween-80
[4] = endpoint: mean survival time, dose: 100.0 mg/kg/injection, schedule: Q01DX001 (ip), vehicle: saline with Tween-80
[5] = endpoint: mean survival time, dose: 100.0 mg/kg/injection, schedule: Q04DX003 (ip), vehicle: saline with Tween-80
[6] = endpoint: mean survival time, dose: 200.0 mg/kg/injection, schedule: Q01DX001 (ip), vehicle: saline with Tween-80
[7] = endpoint: mean survival time, dose: 200.0 mg/kg/injection, schedule: Q04DX003 (ip), vehicle: saline with Tween-80
[8] = endpoint: mean survival time, dose: 400.0 mg/kg/injection, schedule: Q01DX001 (ip), vehicle: saline with Tween-80
[9] = endpoint: mean survival time, dose: 400.0 mg/kg/injection, schedule: Q01DX009 (ip), vehicle: saline with Tween-80
[10] = endpoint: mean survival time, dose: 400.0 mg/kg/injection, schedule: Q04DX003 (ip), vehicle: saline with Tween-80
[11] = endpoint: mean survival time, dose: 6.25 mg/kg/injection, schedule: Q01DX009 (ip), vehicle: saline with Tween-80
[12] = endpoint: mean survival time, dose: 12.5 mg/kg/injection, schedule: Q01DX009 (ip), vehicle: saline with Tween-80
[13] = endpoint: mean survival time, dose: 25.0 mg/kg/injection, schedule: Q01DX009 (ip), vehicle: saline with Tween-80
[14] = endpoint: mean survival time, dose: 100.0 mg/kg/injection, schedule: Q04DX002 (ip), vehicle: saline with Tween-80
[15] = endpoint: mean survival time, dose: 200.0 mg/kg/injection, schedule: Q04DX002 (ip), vehicle: saline with Tween-80
[16] = endpoint: mean survival time, dose: 400.0 mg/kg/injection, schedule: Q04DX002 (ip), vehicle: saline with Tween-80

Measured: T/C

O=C(Nc1ccccc1SC(=O)c1ccccc1)c1ccccc1
inactive: [1] 91 % of control | [2] 87 % of control | [3] 91 % of control

NC(=O)Cn1cnnn1
inactive: [4] 102 % of control | [2] 98 % of control | [5] 101 % of control | [6] 100 % of control | [3] 101 % of control | [7] 95 % of control | [8] 96 % of control | [9] 98 % of control | [10] 95 % of control

O=P(OCCCO)(N1CC1)N1CC1
inactive: endpoint: mean survival time, dose: 25.0 mg/kg/injection, schedule: Q01DX001 (ip), vehicle: other 101 % of control | endpoint: mean survival time, dose: 50.0 mg/kg/injection, schedule: Q01DX001 (ip), vehicle: other 101 % of control | endpoint: mean survival time, dose: 100.0 mg/kg/injection, schedule: Q01DX001 (ip), vehicle: other 102 % of control | endpoint: mean survival time, dose: 200.0 mg/kg/injection, schedule: Q01DX001 (ip), vehicle: other 98 % of control | endpoint: mean survival time, dose: 400.0 mg/kg/injection, schedule: Q01DX001 (ip), vehicle: other 96 % of control

Nc1nnc[se]1
inactive: endpoint: mean survival time, dose: 3.12 mg/kg/injection, schedule: Q01DX009 (ip), vehicle: saline with Tween-80 102 % of control and 104 % of control | [11] 109 % of control and 110 % of control | [12] 116 % of control and 117 % of control and 110 % of control | [13] 120 % of control | [1] 120 % of control and 98 % of control | [2] 105 % of control | endpoint: median survival time, dose: 6.25 mg/kg/injection, schedule: Q01DX009 (ip), vehicle: saline with Tween-80 106 % of control | endpoint: median survival time, dose: 12.5 mg/kg/injection, schedule: Q01DX009 (ip), vehicle: saline with Tween-80 109 % of control | endpoint: median survival time, dose: 25.0 mg/kg/injection, schedule: Q01DX009 (ip), vehicle: saline with Tween-80 108 % of control

CCOC(=O)CC(=O)c1ccc(C(=O)CC(=O)OCC)cc1
inactive: [4] 89 % of control | [6] 89 % of control | [8] 89 % of control

Cc1ccc(N2C(=O)CC(Sc3ccccc3N)C2=O)cc1Cl (stereo not given)
inactive: [2] 95 % of control | [3] 103 % of control | [9] 95 % of control

N=C(N)c1ccc(OCCOc2ccc(N)cc2)cc1
inactive: [4] 103 % of control | [6] 103 % of control

CCOC(=O)Nc1cc2c(ncn2-c2ccccc2)c(N)n1
inactive: endpoint: mean survival time, dose: 100.0 mg/kg/injection, schedule: Q01DX001 (ip), vehicle: Klucel (hydroxypropylcellulose) (HPC) 98 % of control | endpoint: mean survival time, dose: 200.0 mg/kg/injection, schedule: Q01DX001 (ip), vehicle: Klucel (hydroxypropylcellulose) (HPC) 96 % of control

COc1ccc(Cl)cc1[N+](=O)[O-]
inactive: [5] 97 % of control | [7] 94 % of control | [10] 95 % of control

O=C(OC(=O)c1cccc(-c2ccccc2)c1)c1cccc(-c2ccccc2)c1
inactive: endpoint: mean survival time, dose: 100.0 mg/kg/injection, schedule: Q01DX009 (ip), vehicle: Klucel (hydroxypropylcellulose) (HPC) 109 % of control | endpoint: mean survival time, dose: 200.0 mg/kg/injection, schedule: Q01DX009 (ip), vehicle: Klucel (hydroxypropylcellulose) (HPC) 100 % of control | endpoint: mean survival time, dose: 400.0 mg/kg/injection, schedule: Q01DX009 (ip), vehicle: Klucel (hydroxypropylcellulose) (HPC) 97 % of control

COc1ccc2[nH]c3cc(Cl)ccc3c(=O)c2c1
inactive: [4] 87 % of control | [8] 90 % of control

CCSc1n[nH]c(=O)nc1SC
inactive: endpoint: mean survival time, dose: 75.0 mg/kg/injection, schedule: Q01DX001 (ip), vehicle: saline 98 % of control | endpoint: mean survival time, dose: 150.0 mg/kg/injection, schedule: Q01DX001 (ip), vehicle: saline 96 % of control | endpoint: mean survival time, dose: 300.0 mg/kg/injection, schedule: Q01DX001 (ip), vehicle: saline 97 % of control

CCOC(=O)CCSCCC(=O)OCC
inactive: [5] 100 % of control | [7] 96 % of control | [10] 98 % of control

BrC1=CC2C3C=CC(c4ccccc43)C12 (stereo not given)
inactive: [5] 95 % of control | [7] 95 % of control | [10] 96 % of control

COC(=O)C(OC)c1ccc2ccccc2c1 (stereo not given)
inactive: [14] 98 % of control | [15] 98 % of control | [16] 102 % of control

NC(=O)c1cc2c(N)[nH]nc2nc1N
inactive: [11] 97 % of control | endpoint: mean survival time, dose: 6.25 mg/kg/injection, schedule: Q04DX003 (ip), vehicle: saline with Tween-80 94 % of control | [12] 103 % of control | endpoint: mean survival time, dose: 12.5 mg/kg/injection, schedule: Q04DX003 (ip), vehicle: saline with Tween-80 97 % of control | [13] 92 % of control | endpoint: mean survival time, dose: 25.0 mg/kg/injection, schedule: Q04DX003 (ip), vehicle: saline with Tween-80 92 % of control

CC(C)CCCC(C)C1CCC2C3CC=C4CC(OC(=O)CCC(C)C)CC(O)C4(C)C3CCC12C (stereo not given)
inactive: [2] 96 % of control | [3] 94 % of control | [9] 94 % of control

CC/C(=N/O)C(N)=O
inactive: [5] 100 % of control | [7] 103 % of control | [10] 105 % of control

COc1cc(NCCCCN2C(=O)c3ccccc3C2=O)c2ncccc2c1
inactive: [5] 97 % of control | [7] 102 % of control | [10] 96 % of control

O=C1/C(=C\c2ccccc2)C2CCC(C2)/C1=C\c1ccccc1
inactive: [4] 91 % of control | [6] 88 % of control | [8] 97 % of control

CCC(C(=O)O)C(=O)O.[NH2-].[NH2-].[Pt+2]
inactive: endpoint: mean survival time, dose: 12.5 mg/kg/injection, schedule: Q04DX003 (ip), vehicle: saline 101 % of control | endpoint: mean survival time, dose: 200.0 mg/kg/injection, schedule: Q04DX003 (ip), vehicle: saline 87 % of control | endpoint: median survival time, dose: 3.12 mg/kg/injection, schedule: Q01DX009 (ip), vehicle: saline 108 % of control | endpoint: median survival time, dose: 100.0 mg/kg/injection, schedule: Q01DX009 (ip), vehicle: saline 95 % of control

COC(=O)c1cc(N(CCCl)CCCl)ccc1N=Nc1ccc([N+](=O)[O-])cc1
inactive: endpoint: mean survival time, dose: 100.0 mg/kg/injection, schedule: Q04DX003 (ip), vehicle: Klucel (hydroxypropylcellulose) (HPC) 109 % of control | endpoint: mean survival time, dose: 200.0 mg/kg/injection, schedule: Q04DX003 (ip), vehicle: Klucel (hydroxypropylcellulose) (HPC) 115 % of control | endpoint: mean survival time, dose: 400.0 mg/kg/injection, schedule: Q04DX003 (ip), vehicle: Klucel (hydroxypropylcellulose) (HPC) 117 % of control

O=[N+]([O-])c1cccc(/C=N\[n+]2ccccc2)c1
inactive: endpoint: mean survival time, dose: 50.0 mg/kg/injection, schedule: Q04DX002 (ip), vehicle: saline with Tween-80 97 % of control | [14] 100 % of control | [15] 100 % of control

COc1cccc2c1C(=O)c1c(O)c3c(c(O)c1C2=O)C[C@@](O)(/C(C)=N\O)C[C@@H]3OC1CC(N)C(O)C(C)O1 (stereo not given in full)
inactive: endpoint: mean survival time, dose: 3.13 mg/kg/injection, schedule: Q01DX009 (ip), vehicle: water 108 % of control | endpoint: mean survival time, dose: 6.25 mg/kg/injection, schedule: Q01DX009 (ip), vehicle: water 112 % of control | endpoint: mean survival time, dose: 25.0 mg/kg/injection, schedule: Q01DX009 (ip), vehicle: water 98 % of control

Cn1c(=O)c2c(nc(Br)n2CC(O)CF)n(C)c1=O (stereo not given)
inactive: endpoint: mean survival time, dose: 12.5 mg/kg/injection, schedule: Q01DX005 (ip), vehicle: distilled water + Tween-80 101 % of control | endpoint: mean survival time, dose: 25.0 mg/kg/injection, schedule: Q01DX005 (ip), vehicle: distilled water + Tween-80 98 % of control | endpoint: mean survival time, dose: 50.0 mg/kg/injection, schedule: Q01DX005 (ip), vehicle: distilled water + Tween-80 98 % of control | endpoint: mean survival time, dose: 100.0 mg/kg/injection, schedule: Q01DX005 (ip), vehicle: distilled water + Tween-80 101 % of control | endpoint: mean survival time, dose: 200.0 mg/kg/injection, schedule: Q01DX005 (ip), vehicle: distilled water + Tween-80 96 % of control

Cc1ccc(NC(=O)/C=C/c2ccccc2)c(C)c1
inactive: [14] 94 % of control | [15] 94 % of control | [16] 94 % of control
